# Results taken from ChEMBL document CHEMBL1201862, “PubChem BioAssay data set” (2004).
# Active and inactive are the calls of the source.
# Experiments:
# [1] = microbe, parasite or virus in culture; assay type: functional; settings: Mycobacterium tuberculosis
# [2] = molecular target: T1, High affinity choline transporter 1 (Homo sapiens, UniProt Q9GZV3); test: human choline transporter blockers, potency – cell-based, 5-point CRC, membrane potential dye, dose response (AID 504840); assay type: functional
# T1 sequence (Q9GZV3 whole entry): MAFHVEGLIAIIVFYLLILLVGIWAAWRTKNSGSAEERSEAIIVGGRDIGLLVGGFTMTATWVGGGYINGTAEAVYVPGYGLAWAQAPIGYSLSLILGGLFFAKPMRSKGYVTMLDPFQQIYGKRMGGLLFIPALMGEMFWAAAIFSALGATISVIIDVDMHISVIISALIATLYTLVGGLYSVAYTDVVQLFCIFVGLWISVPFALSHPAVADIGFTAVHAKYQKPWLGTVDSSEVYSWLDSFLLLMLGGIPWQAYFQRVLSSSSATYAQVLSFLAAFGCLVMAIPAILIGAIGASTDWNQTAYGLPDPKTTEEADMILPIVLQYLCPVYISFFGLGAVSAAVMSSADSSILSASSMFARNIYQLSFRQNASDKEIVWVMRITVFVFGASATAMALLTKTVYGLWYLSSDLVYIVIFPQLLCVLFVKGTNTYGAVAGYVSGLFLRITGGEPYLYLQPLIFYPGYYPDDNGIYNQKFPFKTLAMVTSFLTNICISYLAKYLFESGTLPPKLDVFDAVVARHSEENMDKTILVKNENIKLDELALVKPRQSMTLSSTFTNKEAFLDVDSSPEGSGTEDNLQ
# [3] = molecular target: Melanocortin receptor 4 (Homo sapiens, UniProt P32245); assay type: functional, cell-based;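 note: Cell-based assay with luminescence read-out, confirmatory dose-response testing for agonist activity of biased ligands at MC4R; human U2OS cells with tagged receptor and beta-arrestin; potency of agonists that increase receptor coupling to beta-arrestin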
# Chain of Melanocortin receptor 4 (P32245 whole entry): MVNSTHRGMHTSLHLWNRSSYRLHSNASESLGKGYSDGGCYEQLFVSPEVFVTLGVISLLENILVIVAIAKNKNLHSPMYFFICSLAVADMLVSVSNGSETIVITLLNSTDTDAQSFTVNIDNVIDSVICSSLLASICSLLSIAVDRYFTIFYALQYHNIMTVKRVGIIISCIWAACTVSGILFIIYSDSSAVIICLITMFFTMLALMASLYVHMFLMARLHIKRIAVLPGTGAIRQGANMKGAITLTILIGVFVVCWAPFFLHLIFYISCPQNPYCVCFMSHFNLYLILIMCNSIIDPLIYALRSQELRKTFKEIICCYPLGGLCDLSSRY
# [4] = cells; assay type: functional
# [5] = molecular target: T2, Calpain-2 catalytic subunit (Sus scrofa, UniProt P43367); test: m-calpain protease blockers, concentration series – biochemical, fluorogenic peptide substrate, dose response (AID 1420); assay type: functional
# T2 sequence (P43367 whole entry): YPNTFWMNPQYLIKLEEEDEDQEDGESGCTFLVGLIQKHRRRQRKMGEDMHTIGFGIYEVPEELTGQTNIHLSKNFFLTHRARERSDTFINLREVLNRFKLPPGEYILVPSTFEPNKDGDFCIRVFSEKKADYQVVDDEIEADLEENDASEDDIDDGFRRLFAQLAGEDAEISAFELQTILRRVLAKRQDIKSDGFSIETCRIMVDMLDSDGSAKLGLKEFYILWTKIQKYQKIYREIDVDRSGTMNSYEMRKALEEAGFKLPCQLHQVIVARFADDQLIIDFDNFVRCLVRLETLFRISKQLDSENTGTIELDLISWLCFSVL
# [6] = molecular target: T3, Short transient receptor potential channel 4 (Mus musculus, UniProt Q9QUQ5); test: calcium entry via TRPC4 opening agents – cell-based, HEK293 TRPC4/mu-opioid, Fluo-4 calcium, dose response (AID 434937); assay type: functional
# T3 sequence (Q9QUQ5 whole entry): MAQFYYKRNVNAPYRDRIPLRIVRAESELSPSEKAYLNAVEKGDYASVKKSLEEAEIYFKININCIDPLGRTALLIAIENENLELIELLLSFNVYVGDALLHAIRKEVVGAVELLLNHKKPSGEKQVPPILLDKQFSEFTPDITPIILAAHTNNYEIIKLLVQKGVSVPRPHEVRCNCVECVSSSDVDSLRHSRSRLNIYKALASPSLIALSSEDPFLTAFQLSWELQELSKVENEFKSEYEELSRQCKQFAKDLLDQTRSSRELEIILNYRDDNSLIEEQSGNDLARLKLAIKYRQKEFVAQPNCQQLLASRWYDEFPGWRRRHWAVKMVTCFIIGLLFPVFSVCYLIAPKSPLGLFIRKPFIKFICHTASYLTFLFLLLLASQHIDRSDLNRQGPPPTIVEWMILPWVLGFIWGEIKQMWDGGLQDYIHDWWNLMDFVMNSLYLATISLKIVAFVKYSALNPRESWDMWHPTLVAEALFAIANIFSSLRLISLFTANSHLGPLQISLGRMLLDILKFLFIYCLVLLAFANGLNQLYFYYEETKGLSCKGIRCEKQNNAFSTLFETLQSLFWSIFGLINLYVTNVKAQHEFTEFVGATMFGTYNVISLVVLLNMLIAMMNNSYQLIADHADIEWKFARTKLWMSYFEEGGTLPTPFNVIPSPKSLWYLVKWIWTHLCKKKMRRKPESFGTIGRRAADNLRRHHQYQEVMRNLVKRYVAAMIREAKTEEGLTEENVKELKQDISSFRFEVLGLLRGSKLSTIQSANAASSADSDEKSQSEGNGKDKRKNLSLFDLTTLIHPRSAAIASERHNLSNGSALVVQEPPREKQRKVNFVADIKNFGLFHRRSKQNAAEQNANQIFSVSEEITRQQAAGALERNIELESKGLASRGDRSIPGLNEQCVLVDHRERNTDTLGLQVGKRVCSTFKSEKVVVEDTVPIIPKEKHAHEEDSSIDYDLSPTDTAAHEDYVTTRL
# [7] = cells; assay type: functional, cell-based
# [8] = cells; assay type: functional, cell-based; remark: listed apart in the source
# [9] = tested on: HEK293; test: EBV LMP1 TES2 canonical NF-kB signalling blockers – cell-based, HEK293, luciferase, cherry-pick, dose response (AID 588343); assay type: functional; settings: Homo sapiens
# [10] = tested on: Streptococcus sp. 'group A'; test: Streptococcus pyogenes SK(-)GAS viability under kanamycin – luminescence, BacTiterGlo, confirmation, counter-screen for streptokinase expression inhibitor project, dose response (AID 1900); assay type: functional, organism-based
# [11] = tested on: Streptococcus; test: GAS UMAA2166 growth inhibition – luminescence, BacTiterGlo, counter-screen for streptokinase expression inhibitor project, dose response (AID 1915); assay type: functional, organism-based;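 note: potency for reduction of bacterial viability or growth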
# [12] = blockade of melanocortin 4 receptor signaling – cell-based, plate reader, cherry pick, counter-screen for LGR2 antagonist project, dose response (AID 743444); assay type: functional;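 note: transfected HEK 293 cells stimulated with alpha-MSH peptide; potency of inhibitors of the alpha-MSH evoked signal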
# [13] = blockers of bursicon-stimulated LGR2 cAMP reporter – cell-based, HEK293, CRE-luciferase reporter, cherry pick, set 2, dose response (AID 743343); assay type: functional;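 note: transfected cells were stimulated with diluted bursicon conditioned medium after compound addition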
# [14] = molecular target: T4, Ubiquitin-conjugating enzyme E2 N (Homo sapiens, UniProt P61088); assay type: functional;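 note: Dose-response confirmation in a TR-FRET assay detecting UBC13-driven polyubiquitin chain formation, inhibition measured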
# T4 sequence (P61088 whole entry): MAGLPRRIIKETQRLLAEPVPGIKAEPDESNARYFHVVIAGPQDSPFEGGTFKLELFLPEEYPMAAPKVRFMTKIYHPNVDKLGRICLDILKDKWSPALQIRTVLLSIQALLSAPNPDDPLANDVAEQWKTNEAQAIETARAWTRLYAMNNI
# [15] = molecular target: T5, Rac GTPase-activating protein 1 (Homo sapiens, UniProt Q9H0H5); test: blockers of MgcRacGAP-driven Rac1 GTP hydrolysis – biochemical, ADP Hunter fluorescence, primary and confirmatory, confirmation (AID 624330); assay type: functional
# T5 sequence (Q9H0H5 whole entry): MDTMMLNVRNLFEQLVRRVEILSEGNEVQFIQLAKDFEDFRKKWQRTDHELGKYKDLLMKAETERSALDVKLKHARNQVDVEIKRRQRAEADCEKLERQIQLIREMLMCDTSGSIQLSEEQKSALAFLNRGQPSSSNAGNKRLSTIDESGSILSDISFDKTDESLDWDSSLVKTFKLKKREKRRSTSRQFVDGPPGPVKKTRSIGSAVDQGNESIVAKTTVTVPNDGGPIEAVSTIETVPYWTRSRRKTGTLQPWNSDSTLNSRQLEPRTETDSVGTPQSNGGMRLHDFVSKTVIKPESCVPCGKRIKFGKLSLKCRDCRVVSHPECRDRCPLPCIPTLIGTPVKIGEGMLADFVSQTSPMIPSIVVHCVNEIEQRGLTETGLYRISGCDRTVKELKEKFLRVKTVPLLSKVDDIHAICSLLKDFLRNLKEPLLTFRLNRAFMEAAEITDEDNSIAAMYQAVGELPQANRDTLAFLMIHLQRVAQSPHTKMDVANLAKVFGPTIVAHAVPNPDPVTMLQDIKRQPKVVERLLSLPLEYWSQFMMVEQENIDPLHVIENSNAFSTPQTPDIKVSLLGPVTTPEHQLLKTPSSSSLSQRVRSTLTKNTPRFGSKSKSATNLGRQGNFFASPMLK
# [16] = molecular target: Genome polyprotein (dengue virus type 2, UniProt P29990); test: flavivirus cap methylation enzyme inhibition – biochemical, confirmation dose response, primary screen (AID 588689); assay type: functional
# Chain of Genome polyprotein (P29990 2492-3391 limits assumed): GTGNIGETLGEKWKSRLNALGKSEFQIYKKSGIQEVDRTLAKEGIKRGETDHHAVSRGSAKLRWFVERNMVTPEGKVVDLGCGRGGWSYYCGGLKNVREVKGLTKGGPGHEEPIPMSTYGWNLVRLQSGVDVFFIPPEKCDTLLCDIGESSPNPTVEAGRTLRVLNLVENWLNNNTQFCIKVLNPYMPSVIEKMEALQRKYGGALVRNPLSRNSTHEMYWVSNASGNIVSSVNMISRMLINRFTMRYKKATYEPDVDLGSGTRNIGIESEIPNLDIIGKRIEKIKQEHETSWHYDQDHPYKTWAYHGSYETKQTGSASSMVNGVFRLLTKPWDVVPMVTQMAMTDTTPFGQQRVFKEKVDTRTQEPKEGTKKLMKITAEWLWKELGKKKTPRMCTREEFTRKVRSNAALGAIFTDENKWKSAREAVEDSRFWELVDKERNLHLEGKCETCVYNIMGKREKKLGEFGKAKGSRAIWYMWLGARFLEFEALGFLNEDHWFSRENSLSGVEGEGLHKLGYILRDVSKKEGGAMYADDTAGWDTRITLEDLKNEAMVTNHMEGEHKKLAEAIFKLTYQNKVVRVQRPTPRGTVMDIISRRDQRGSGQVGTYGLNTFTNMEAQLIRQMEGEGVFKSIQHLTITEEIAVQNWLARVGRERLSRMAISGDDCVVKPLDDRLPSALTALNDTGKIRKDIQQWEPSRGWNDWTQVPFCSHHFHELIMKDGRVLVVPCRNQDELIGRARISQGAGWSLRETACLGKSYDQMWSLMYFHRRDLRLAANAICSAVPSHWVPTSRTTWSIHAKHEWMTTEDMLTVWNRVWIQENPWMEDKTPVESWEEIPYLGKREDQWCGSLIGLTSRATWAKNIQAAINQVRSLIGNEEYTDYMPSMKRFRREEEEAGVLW
# [17] = molecular target: Cytochrome P450 2C19 (Homo sapiens, UniProt P33261); test: Cytochrome panel assay with activity outcomes. Panel member name: p450-cyp2c19 Compounds with AC50 equal or less than 10 uM are considered active; assay type: functional; settings: read-out: AC50
# Chain of Cytochrome P450 2C19 (P33261 whole entry): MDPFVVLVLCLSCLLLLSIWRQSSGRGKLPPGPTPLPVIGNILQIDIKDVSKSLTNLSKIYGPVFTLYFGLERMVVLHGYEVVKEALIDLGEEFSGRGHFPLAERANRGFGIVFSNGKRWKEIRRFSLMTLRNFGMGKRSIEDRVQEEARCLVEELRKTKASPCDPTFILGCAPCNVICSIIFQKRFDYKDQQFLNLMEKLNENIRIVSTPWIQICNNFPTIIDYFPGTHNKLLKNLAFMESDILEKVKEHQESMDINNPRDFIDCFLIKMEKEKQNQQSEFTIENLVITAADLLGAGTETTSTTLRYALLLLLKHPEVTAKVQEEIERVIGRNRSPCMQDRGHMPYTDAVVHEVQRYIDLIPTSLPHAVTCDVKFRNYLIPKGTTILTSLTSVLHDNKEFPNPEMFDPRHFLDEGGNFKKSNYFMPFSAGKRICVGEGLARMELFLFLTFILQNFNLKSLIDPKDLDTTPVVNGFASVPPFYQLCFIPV
# [18] = molecular target: Cytochrome P450 2C9 (Homo sapiens, UniProt P11712)
# Chain of Cytochrome P450 2C9 (P11712 whole entry): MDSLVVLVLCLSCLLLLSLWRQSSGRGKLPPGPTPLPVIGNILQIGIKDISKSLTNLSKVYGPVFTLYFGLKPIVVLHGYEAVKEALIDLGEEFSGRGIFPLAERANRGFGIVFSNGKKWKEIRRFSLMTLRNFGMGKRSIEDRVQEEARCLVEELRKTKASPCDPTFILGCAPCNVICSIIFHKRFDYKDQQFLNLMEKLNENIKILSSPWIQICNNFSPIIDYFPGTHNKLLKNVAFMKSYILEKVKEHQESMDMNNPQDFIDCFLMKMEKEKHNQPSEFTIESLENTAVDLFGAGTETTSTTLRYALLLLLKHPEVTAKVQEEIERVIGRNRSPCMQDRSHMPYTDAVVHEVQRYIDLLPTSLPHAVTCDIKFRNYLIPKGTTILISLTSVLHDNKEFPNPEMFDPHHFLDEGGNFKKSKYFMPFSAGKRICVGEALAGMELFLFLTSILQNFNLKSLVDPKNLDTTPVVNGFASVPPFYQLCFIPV
# [19] = molecular target: T3, Short transient receptor potential channel 4; test: block of DAMGO-driven TRPC4 calcium entry – cell-based, HEK293 TRPC4/mu-opioid, Fluo-4 calcium, dose response (AID 434942); assay type: functional;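 note: potency of inhibitors blocking the TRPC4 calcium response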
# [20] = molecular target: Cytochrome P450 3A4 (Homo sapiens, UniProt P08684);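 note: CYP3A4 tested as one member of a cytochrome P450 panel screen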
# Chain of Cytochrome P450 3A4 (P08684 whole entry): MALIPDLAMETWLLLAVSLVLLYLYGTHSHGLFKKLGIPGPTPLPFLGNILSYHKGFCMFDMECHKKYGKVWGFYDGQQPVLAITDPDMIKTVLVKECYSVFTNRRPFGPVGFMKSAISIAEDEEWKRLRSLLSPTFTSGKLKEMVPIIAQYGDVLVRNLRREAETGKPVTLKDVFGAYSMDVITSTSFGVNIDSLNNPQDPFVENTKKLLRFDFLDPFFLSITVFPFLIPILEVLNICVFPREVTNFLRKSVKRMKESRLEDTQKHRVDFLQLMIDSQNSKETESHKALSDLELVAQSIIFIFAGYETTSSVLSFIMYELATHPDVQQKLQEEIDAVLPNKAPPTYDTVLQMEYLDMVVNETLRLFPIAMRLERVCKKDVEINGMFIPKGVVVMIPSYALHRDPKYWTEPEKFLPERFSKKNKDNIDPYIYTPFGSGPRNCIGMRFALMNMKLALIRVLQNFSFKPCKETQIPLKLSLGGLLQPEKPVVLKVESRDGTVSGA
smiles,measurement,setting,value
O=C(C1CCCN(c2ncnc3c2nc2n3CCCCC2)C1)N1CCN(c2ccc(Cl)cc2)CC1 (configuration not stated),CC50,[1],> 40 µM (active)
same,IC50,[2],4.57 µM (active)
CC(=O)Nc1cc(-c2ccc(C(=O)N3CCOCC3)cc2)cn2c(-c3ccccc3)cnc12,EC50,[3],> 89.2 µM (inactive)
Cc1onc(-c2ccccc2)c1C(=O)Nc1nnc(COc2ccc(Cl)cc2)s1,IC50,[4],8.45 µM (active)
Cc1ccc(SC[C@H](c2ccccc2)N2CCN(CCc3ccccc3)CCC2=O)cc1,IC50,[5],7.19 µM (not active)
CC1CCCCC1NC(=O)c1ccc(S(=O)(=O)N2CCCC2)cc1 (configuration not stated),IC50,[2],13.2 µM (active)
COc1ccccc1C(=O)Nc1ccc(C(=O)c2ccccc2)cc1,IC50,[5],35.2 µM (not active)
COc1ccc(F)cc1CN1CCN(C(=O)CCC(=O)Nc2nnc(C(C)C)s2)CC1,EC50,[6],0.841 µM (active)
O=C(Cn1ncc2c3ccccc3n(Cc3ccccc3F)c2c1=O)NCCN1CCOCC1,EC50,[7],> 350 µM (not active)
same,EC50,[8],> 350 µM (not active)
same,IC50,[2],12 µM (active)
COc1ccc(OCC(=O)N/N=C2\CCc3ccccc32)cc1,IC50,[4],42.9 µM (active)
CCCCNS(=O)(=O)c1ccc2[nH]c(SCC(=O)Nc3ccccc3Cl)nc2c1,IC50,[5],18.5 µM (not active)
CC(C)C(=O)Nc1ccc(C(=O)N/N=C/c2cc(Br)cc(Br)c2O)cc1,AC50,[9],16.7 µM (active)
same,EC50,[10],1.65 µM (active)
same,EC50,[11],2.04 µM (active)
COc1cc(C(=S)N2CCOCC2)cc(OC)c1OC(=O)c1ccc(F)cc1,AC50,[9],> 350 µM (inactive)
C=CCn1c(CCNC(=O)c2ccco2)nc2ccccc21,EC50,[6],1.68 µM (active)
CC1Cc2ccccc2N1C(=S)NC(=O)c1ccco1 (configuration not stated),IC50,[5],0.535 µM (not active)
Cn1nc(C(=O)NNc2c(F)c(F)cc(F)c2F)c2ccccc2c1=O,IC50,[5],5.53 µM (not active)
COc1ccc(S(=O)(=O)N2CCCCN3[C@H](CO)[C@H](c4ccc(-c5cccnc5)cc4)[C@@H]3C2)cc1,AC50,[12],25.6 µM (active)
same,AC50,[13],20 µM (active)
COc1ccc(C(=O)C2CCCN(C3Cc4ccccc4C3)C2)cc1OC (configuration not stated),EC50,[6],1.68 µM (active)
COc1ccc(-c2oc3ccc(-c4ccc5c(c4)OCO5)cc3c2C#CC2(O)CCCCC2)cc1,EC50,[3],> 89.2 µM (inactive)
O=C1Nc2cc(C(=O)NCCCN3CCOCC3)ccc2S/C1=C/c1cccc(Cl)c1,IC50,[14],> 20 µM (inactive)
same,IC50,[4],27.8 µM (active)
same,CC50,[1],> 40 µM (active)
COc1cc(/C=C2\C(=O)N(c3cccc(C(=O)O)c3)N=C2C)ccc1OCc1ccccc1,IC50,[15],43.9 µM (active)
same,IC50,[16],7.99 µM (active)
CCCN(CCC)CCN=C(S)Nc1ccc2nc3n(c(=O)c2c1)CCCCC3,EC50,[6],0.299 µM (active)
O=C(Nc1cc(-c2nc3ccccc3s2)ccc1Cl)c1ccc2c(c1)OCO2,AC50,[17],3.55 µM (inconclusive)
same,EC50,[3],> 89.2 µM (inactive)
same,AC50,[18],1.78 µM (inconclusive)
Cc1ccc(N2C(=O)CC(c3c[nH]c4ccccc34)C2=O)cc1 (configuration not stated),IC50,[5],12.1 µM (not active)
COc1ccccc1NS(=O)(=O)c1ccc(N/N=C/c2ccccc2OCC(=O)O)c([N+](=O)[O-])c1,IC50,[16],56.5 µM (active)
COc1ccc(NC(=O)COC(=O)c2c(NC(C)=O)sc(C)c2C)cc1,EC50,[3],> 89.3 µM (inactive)
CCN1CCN(c2ccc(S(=O)(=O)N3CCOCC3)cc2NC(=O)/C=C/c2ccc(OC)cc2OC)CC1,EC50,[6],2.99 µM (active)
CCOc1ccc(N2C(=O)C(Cl)=C(N3CCOCC3)C2=O)cc1,IC50,[16],29.4 µM (active)
CCCOc1cccc(C(=O)NCCNC(=O)c2ccco2)c1,EC50,[19],2.99 µM (active)
Nc1c(-c2cccs2)cnn1-c1nc(-c2ccc(Cl)cc2Cl)cs1,EC50,[3],> 89.2 µM (inactive)
same,AC50,[20],12.6 µM (inconclusive)
same,AC50,[18],20 µM (inconclusive)
